# Data reported in US9409952B2, “Peptide-compound cyclization method” (Chugai Seiyaku Kabushiki Kaisha, priority 2011, dated 2016).
# Where two headings read alike, the source gives them in different places. Starred links: 1 amine or outer side, 2 acyl side, 3 side chain; linkers in the order of their positions; H or OH if unused. Positions of bridges follow the written chain, without caps; N, C: chain ends. Non-standard residues stand in square brackets, D forms with d. Residues, ends and D or L forms follow the SMILES beside them. *: point of attachment. Phe(4-CF3) = N[C@@H](Cc1ccc(C(F)(F)F)cc1)C(=O)O; NMePhe(3-Cl) = CN[C@@H](Cc1cccc(Cl)c1)C(=O)O; NMeF = CN[C@@H](Cc1ccccc1)C(=O)O; NMeGABA = CN(CCCC(=O)[*:2])[*:1]; NMeI = CC[C@H](C)[C@H](NC)C(=O)O; 3Pal = N[C@@H](Cc1cccnc1)C(=O)O; NMeβAla = CN(CCC(=O)[*:2])[*:1]; NMeL = CN[C@@H](CC(C)C)C(=O)O; NMeV = CN[C@H](C(=O)O)C(C)C; NMeA = CN[C@@H](C)C(=O)O; Piperidide = C1CCN(*)CC1; dNMeA = CN[C@H](C)C(=O)O; β3hA = C[C@H](N)CC(=O)O; Sar = CNCC(=O)O; tBu = CC(C)(C)*
# How the values were obtained:
# [1] = PAMPA (parallel artificial membrane permeability assay); format: in vitro ADME; conditions: PAMPA
# How it was run: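 Artificial membrane was 10% (w/v) egg lecithin plus 0.5% (w/v) cholesterol in dodecane on a PVDF filter. A 10 mM DMSO stock was added at 0.5% (v/v) to donor buffer (50 mM MOPSO, pH 6.5, 5.0% glycocholic acid). After 18 h at 37 °C, LC/MS or LC/UV gave donor and acceptor levels for Pe.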
# [2] = Metabolic stability in human hepatic microsome; format: in vitro ADME; conditions: microsomes
# [3] = membrane permeation rate (Pe), 50 mM MOPSO buffer pH 6.5 with 5.0% glycocholic acid, 37° C., 18 hours, read-out: iPAMPA Pe
# [4] = pH 7.4, human hepatic microsome, NADPH(+), read-out: CL NADPH(+)
Structure (SMILES),"Papp at 18 hours, 50 µM [1, 3] [×10⁻⁶ cm/s]","microsomal CLint at 1 uM [2, 4] [µL/min/mg]","Papp at 18 hours, 50 µM ([1]; pH 6.5) [×10⁻⁶ cm/s]","microsomal CLint at 1 uM ([2]; human, pH 7.4, CL NADPH(+)) [µL/min/mg]"
CC(C)C[C@H]1C(=O)N(C)[C@@H](C(C)C)C(=O)N[C@@H](C(C)C)C(=O)N[C@H](C(=O)N(C)[C@@H](Cc2ccccc2)C(=O)N[C@@H](C)C(=O)N2CCCCC2)CC(=O)N[C@@H](C)C(=O)N[C@@H](Cc2ccccc2)C(=O)N(C)[C@@H](CC(C)C)C(=O)N[C@@H]([C@@H](C)O)C(=O)N(C)[C@@H](Cc2ccccc2)C(=O)NCC(=O)N1C [DP-187] (AF[NMeL]T[NMeF]G[NMeL][NMeV]VD[NMeF]A-Piperidide; lactam N-10),43,22,,
CC[C@H](C)[C@@H]1NC(=O)[C@H](C)N(C)C(=O)[C@@H](C)N(C)C(=O)C[C@H](C)NC(=O)[C@H](CC(C)C)N(C)C(=O)[C@H](C)N(C)C(=O)[C@H](Cc2ccccc2)N(C)C(=O)[C@H]([C@@H](C)O)NC(=O)[C@H](Cc2ccccc2)N(C)C(=O)[C@H](CC(C)C)N(C)C1=O [DP-783] (cyclo(I[NMeL][NMeF]T[NMeF][NMeA][NMeL][β3hA][dNMeA][NMeA])),,,31,269
CC(C)C[C@H]1C(=O)N(C)[C@@H](C)C(=O)N[C@@H]([C@@H](C)O)C(=O)N(C)[C@@H](C)C(=O)N(C)[C@@H](Cc2ccccc2)C(=O)N[C@@H](Cc2ccccc2)C(=O)N[C@H](C(=O)N(C)[C@@H](Cc2ccccc2)C(=O)N[C@@H](C)C(=O)N2CCCCC2)CC(=O)N(C)CCC(=O)N(C)[C@@H](C)C(=O)N[C@@H](C)C(=O)N(C)CC(=O)N1C [DP-361] ([NMeβAla][NMeA]A[Sar][NMeL][NMeA]T[NMeA][NMeF]FD[NMeF]A-Piperidide; lactam N-11),1.5,9,,
CC[C@H](C)[C@H](NC(=O)[C@@H]1CC(=O)N[C@@H](Cc2ccccc2)C(=O)N(C)[C@@H](CC(C)C)C(=O)N[C@@H](C)C(=O)N(C)[C@@H](CC(C)C)C(=O)N[C@@H](COC(C)(C)C)C(=O)N(C)[C@@H](CC(C)C)C(=O)N(C)[C@@H](CC(C)C)C(=O)N[C@@H]([C@@H](C)O)C(=O)N[C@@H](Cc2ccccc2)C(=O)N(C)[C@@H](Cc2ccccc2)C(=O)N(C)[C@@H](C)C(=O)N1)C(=O)N[C@H](C(=O)N1CCCCC1)[C@@H](C)CC [DP-953] (F[NMeL]A[NMeL]S(tBu)[NMeL][NMeL]TF[NMeF][NMeA]DII-Piperidide; lactam N-12),0.1,8,,
CC(C)C[C@H]1C(=O)N[C@H](C(=O)N2CCCCC2)CC(=O)N(C)[C@H](C)C(=O)N(C)[C@@H](CC(C)C)C(=O)N[C@@H]([C@@H](C)O)C(=O)N(C)CC(=O)N[C@@H](COC(C)(C)C)C(=O)N1C [DP-536] ([dNMeA][NMeL]T[Sar]S(tBu)[NMeL]D-Piperidide; lactam N-7),9.9,113,,
CC(C)C[C@H]1C(=O)N[C@@H]([C@@H](C)O)C(=O)N(C)[C@@H](C)C(=O)N[C@H](C(=O)N2CCCCC2)CC(=O)N(C)[C@@H](C)C(=O)N[C@@H](C)C(=O)N(C)[C@@H](Cc2ccccc2)C(=O)N(C)[C@@H](CC(C)C)C(=O)N[C@@H](Cc2ccccc2)C(=O)N1C [DP-150] ([NMeA]A[NMeF][NMeL]F[NMeL]T[NMeA]D-Piperidide; lactam N-9),33,701,,
CC(C)C[C@H]1C(=O)N(C)[C@@H](CC(C)C)C(=O)N[C@H](C(=O)N(C)[C@@H](Cc2ccccc2)C(=O)N[C@@H](C)C(=O)N2CCCCC2)CC(=O)N[C@H](C(C)C)C(=O)N(C)[C@@H](C)C(=O)N(C)[C@@H](Cc2ccccc2)C(=O)N(C)[C@@H](CC(C)C)C(=O)N[C@@H](Cc2cccnc2)C(=O)N(C)CC(=O)N[C@@H](C)C(=O)N1C [DP-591] ([dV][NMeA][NMeF][NMeL][3Pal][Sar]A[NMeL][NMeL]D[NMeF]A-Piperidide; lactam N-10),26,15,,
CC[C@H](C)[C@@H]1NC(=O)[C@H](Cc2ccccc2)N(C)C(=O)[C@H](C)N(C)C(=O)CN(C)C(=O)[C@H]([C@@H](C)O)NC(=O)[C@H](C)N(C)C(=O)[C@H](C(C)C)N(C)C(=O)[C@H](C)NC(=O)CCN(C)C(=O)C[C@@H](C(=O)N(C)[C@@H](Cc2ccccc2)C(=O)N(C)[C@@H](Cc2ccccc2)C(=O)N[C@@H](C)C(=O)N2CCCCC2)NC1=O [DP-498] ([NMeβAla]A[NMeV][NMeA]T[Sar][NMeA][NMeF]ID[NMeF][NMeF]A-Piperidide; lactam N-10),2.7,9,,
CC[C@H](C)[C@@H]1NC(=O)[C@H](CC(C)C)N(C)C(=O)[C@H](Cc2ccccc2)NC(=O)CCN(C)C(=O)C[C@@H](C(=O)N2CCCCC2)NC(=O)[C@H](CC(C)C)NC(=O)[C@H](Cc2ccccc2)NC(=O)[C@H](Cc2ccccc2)N(C)C(=O)[C@H](CC(C)C)NC(=O)[C@H]([C@@H](C)O)NC1=O [DP-334] ([NMeβAla]F[NMeL]ITL[NMeF]FLD-Piperidide; lactam N-10),20,80,,
CC(C)C[C@@H]1NC(=O)[C@H](CC(C)C)N(C)C(=O)[C@H](Cc2ccccc2)NC(=O)[C@H](C)NC(=O)[C@H](C(C)C)N(C)C(=O)CN(C)C(=O)[C@H]([C@@H](C)O)NC(=O)[C@H](C)N(C)C(=O)[C@H](CC(C)C)N(C)C(=O)[C@H](C)NC(=O)C[C@@H](C(=O)N(C)[C@@H](Cc2ccccc2)C(=O)N[C@@H](C)C(=O)N2CCCCC2)NC1=O [DP-177] (A[NMeL][NMeA]T[Sar][NMeV]AF[NMeL]LD[NMeF]A-Piperidide; lactam N-11),23,27,,
CC(C)C[C@H]1C(=O)N(C)[C@@H](C(C)C)C(=O)N(C)[C@@H](C)C(=O)N[C@@H](Cc2ccccc2)C(=O)N(C)[C@@H](C)C(=O)N[C@H](C(=O)N2CCCCC2)CC(=O)N(C)[C@@H](C)C(=O)N[C@@H]([C@@H](C)O)C(=O)N(C)[C@@H](C)C(=O)N[C@@H](C)C(=O)N(C)[C@@H](Cc2ccccc2)C(=O)N1C [DP-322] ([NMeA]T[NMeA]A[NMeF][NMeL][NMeV][NMeA]F[NMeA]D-Piperidide; lactam N-11),10,74,,
CC(C)C[C@H]1C(=O)N[C@@H]([C@@H](C)O)C(=O)N[C@H](C(=O)N(C)[C@@H](Cc2ccccc2)C(=O)N(C)[C@@H](Cc2ccccc2)C(=O)N[C@@H](C)C(=O)N2CCCCC2)CC(=O)N(C)CCCC(=O)N(C)[C@@H](C)C(=O)N(C)[C@@H](Cc2ccccc2)C(=O)N[C@@H](C(C)C)C(=O)N(C)[C@@H](CC(C)C)C(=O)N(C)CC(=O)N1C [DP-404] ([NMeGABA][NMeA][NMeF]V[NMeL][Sar][NMeL]TD[NMeF][NMeF]A-Piperidide; lactam N-9),20,107,,
CC(C)C[C@@H]1NC(=O)[C@H]([C@@H](C)O)NC(=O)[C@H](CC(C)C)N(C)C(=O)[C@H](Cc2ccccc2)N(C)C(=O)CN(C)C(=O)[C@@H](C)NC(=O)C[C@@H](C(=O)N2CCCCC2)NC1=O [DP-742] ([dA][Sar][NMeF][NMeL]TLD-Piperidide; lactam N-7),15,175,,
CC[C@H](C)[C@H]1C(=O)NCC(=O)N(C)[C@@H](C)C(=O)N[C@@H](CC(C)C)C(=O)N[C@@H](C)CC(=O)N(C)[C@@H](C)C(=O)N[C@@H](CC(C)C)C(=O)N(C)[C@@H](C)C(=O)N[C@@H]([C@@H](C)O)C(=O)N2CCC[C@H]2C(=O)N(C)[C@@H](Cc2cccc(Cl)c2)C(=O)N[C@@H](Cc2ccc(C(F)(F)F)cc2)C(=O)N1C [DP-810] (cyclo(G[NMeA]L[β3hA][NMeA]L[NMeA]TP[NMePhe(3-Cl)][Phe(4-CF3)][NMeI])),,,14,46
CC[C@H](C)[C@@H]1NC(=O)[C@H](C)NC(=O)C[C@@H](C(=O)N(C)[C@@H](Cc2ccccc2)C(=O)N[C@@H](C)C(=O)N2CCCCC2)NC(=O)[C@H](Cc2ccccc2)NC(=O)[C@H](C)N(C)C(=O)[C@H](C(C)C)N(C)C(=O)CN(C)C(=O)[C@H]([C@@H](C)O)NC(=O)[C@H](Cc2ccccc2)N(C)C(=O)[C@H](CC(C)C)N(C)C(=O)[C@H](CC(C)C)N(C)C1=O [DP-483] (AI[NMeL][NMeL][NMeF]T[Sar][NMeV][NMeA]FD[NMeF]A-Piperidide; lactam N-11),18,23,,
CC(C)C[C@H]1C(=O)N[C@H](C(=O)N2CCCCC2)CC(=O)N(C)[C@H](C)C(=O)N(C)[C@@H](Cc2ccccc2)C(=O)N(C)[C@@H](CC(C)C)C(=O)N[C@@H]([C@@H](C)O)C(=O)N(C)[C@@H](CC(C)C)C(=O)N[C@@H](COC(C)(C)C)C(=O)N1C [DP-683] ([dNMeA][NMeF][NMeL]T[NMeL]S(tBu)[NMeL]D-Piperidide; lactam N-8),32,53,,
CC(C)C[C@H]1C(=O)N(C)[C@@H](CC(C)C)C(=O)N[C@H](C(=O)N2CCCCC2)CC(=O)N(C)CCCC(=O)N(C)[C@@H](Cc2ccccc2)C(=O)N[C@@H]([C@@H](C)O)C(=O)N(C)CC(=O)N[C@@H](COC(C)(C)C)C(=O)N1C [DP-525] ([NMeGABA][NMeF]T[Sar]S(tBu)[NMeL][NMeL]D-Piperidide; lactam N-8),22,86,,
